Values joined by “and” are separate entries in the source; they are usually repeats but may differ in a detail not shown here. Equal entries are not always repeated. Where two headings read alike, the source gives them in different places.
How the values were obtained:
[1] = Solubility assay in JP 1st and 2nd fluid; assay type: physicochemical
Experimental: The Japanese Pharmacopeia (JP) 1st fluid (pH 1.2) and JP 2nd fluid (pH 6.8) for dissolution testing were used for solubility measurements. The solution of a test compound was prepared by diluting 10 mM NK-5962 in 2 μL DMSO stock solution with 165 μL of JP 1st or 2nd fluid and then mixed at 37 °C for 4 h by rotation at 1000 rpm. After loading the mixed solution into 96-well MultiScreen Filter Plates (product number MSHVN4510, 0.45 μm hydrophilic PVDF membrane; Millipore, Bedford, MA, USA), filtration was performed by centrifugation. The filtrates were mixed with acetonitrile and analyzed by high-performance liquid chromatography-UV detection (HPLC-UV, 254 nm) or by liquid chromatography and tandem mass spectrometry (LC-MS/MS). Solubility was calculated by comparing the peak area of the filtrate mixture with that of a 100 μM standard solution.

[2] = Tests for the biological evaluation of medical devices (ISO 10993); conditions: data not shown
[3] = Hepatic microsomal stability assay, rat; assay type: in vitro ADME
Experimental: The disappearance of the parent compound over time was measured by using the amount of drug at time zero as a reference. After 5 min of preincubation, 1 mM NADPH (final concentration, the same applies to the following) was added to a mixture containing 1 μM of the test compound, 0.2 mg/mL of rat or human liver microsomes (Sekisui XenoTech, LLC, Kansas City, KS), 1 mM EDTA, and 100 mM phosphate buffer (pH 7.4) and then incubated at 37 °C for 30 min by rotation at 60 rpm. An aliquot of 50 μL of the incubation mixture was sampled and added to 250 μL of chilled acetonitrile/internal standard (IS). After the centrifugation for 15 min at 3150× g at 4 °C, the supernatants were analyzed by LC-MS/MS. Hepatic microsomal stability (mL/min/kg, CLint) was calculated according to the previous report and 44.8 or 48.8 mg microsomal protein/g liver and 40.0 or 25.7 g liver/kg body weight were used as scaling factors for the rat or human, respectively.

[4] = test system: chick retinal cells including neurons and glial cells; parameters: method as in PMID 18414992; conditions: cited from earlier work; for The Percentage of Dead Cells in Total Cells: 2 days, per well
[5] = test system: human chromosomal aberration; test: Human chromosomal aberration test; assay type: cell-based
[6] = Eye ball concentration after intravitreous injection; assay type: in vivo, rat; conditions: intravitreous 16 µM (3 µL)
Experimental: The NK-5962 solutions at 16 μM concentration in phosphate-buffered saline and at 39.7 μM concentration in 0.5% methyl cellulose 400 solution (FUJIFILM Wako Chemicals, Osaka, Japan) were prepared as eye drops and topically applied to both eyes of two Wistar rats assigned for each concentration. The eyes were enucleated 30 min after topical application, washed twice in saline, weighed, and frozen for NK-5962 measurement. In parallel, 3 μL of the NK-5962 solution at 16 μM concentration in phosphate-buffered saline was injected into the vitreous of both eyes of 2 Wistar rats. The eyes in each rat were enucleated 5 min and 2 h after the intravitreous injection, washed twice in saline, weighed, and then frozen. Both eyes of one rat served as the negative control. This study was approved by the Animal Care and Use Committee at Okayama University (Identifier OKU-2016267, OKU-2019196).
Liquid chromatography and tandem mass spectrometry instrument (LC-MS8060) equipped with Shimadzu Nexera series LC system (Shimadzu, Kyoto, Japan) were used. All compounds were analyzed in multi-reaction monitoring mode under electron spray ionization conditions. The analytical column used was a […] C18 MGIII (3 μm × 2.0 mmID × 35 mm; OSAKA SODA, Osaka, Japan) at 50 °C. The gradient mobile phase consisted of 0.1% formic acid in water (mobile phase A) and 0.1% formic acid in acetonitrile (mobile phase B) at a total flow rate of 1 mL/minute. The initial mobile phase composition was 10% B, which was held constant for 0.2 min, increased in a linear fashion to 90% B over 1 min, then held constant for 0.8 min, and then finally brought back to the initial condition of 10% B over 0.01 min and re-equilibrated for 1 min. The transitions (precursor ion > product ion) of NK-5962 and IS (methyl testosterone) are 433.2 > 279.2 and 303.1 > 109.1 (positive), respectively.

CCCCN(CCCC)c1ccc(C=Cc2sc3ccccc3[n+]2CC(=O)O)cc1.[Br-] [NK-5962, 2-[2-[4-(dibutylamino)phenyl]ethenyl]-3-carboxymethylbenzothiazolium bromide]
solubility at 4 h ([1]; JP 1st fluid pH 1.2, 37 °C, read-out: Solubility JP1 (pH 1.2)): 79 µM
Solubility JP2 (pH 6.8) ([1]; JP 2nd fluid pH 6.8, 37 °C, 4 h): low
solubility at 4 h ([1]; JP 2nd fluid pH 6.8, 37 °C, read-out: Solubility JP2 (pH 6.8)): 0.2 µM
toxicity in all tests for the biological evaluation of medical devices (ISO 10993) [2]: safe
Microsome Metabolic Stability Rat ([3]; 1 μM, 0.2 mg/mL microsomes, 1 mM NADPH, 30 min): 151.9 µL/min/mg
metabolic stability (in words) ([3]; rat liver microsomes): moderate metabolic stability
stability in the absence of the coenzyme NADPH ([3]; rat liver microsomes, without NADPH): stable
CLint scaled at 1 μM ([3]; rat, liver microsomes, pH 7.4, 1 μM, 0.2 mg/mL microsomes, 1 mM NADPH, 30 min, read-out: Microsome Metabolic Stability Rat (CLint)): 272 mL/min/kg
percentage of dead cells, dependence on concentration ([4]; 2 days culture, dark or light condition, P = 0.0183 two-factor ANOVA): significantly smaller at higher concentrations
The Percentage of Dead Cells in Total Cells ([4]; NK-5962 1.6 × 10^−5 M, light exposure yes (230 lux 9 h daily)): 1.3% and 0% and 0.5% and 0.3% and 1.9% and 3.2% and 3.0%
The Percentage of Dead Cells in Total Cells ([4]; NK-5962 1.6 × 10^−6 M, light exposure no): 2.5% and 0.4% and 1.3% and 2.4% and 0.8% and 1.7% and 1.9% and 1.4%
The Percentage of Dead Cells in Total Cells ([4]; NK-5962 1.6 × 10^−7 M, light exposure no): 5.1% and 2.0% and 0.3% and 1.2% and 0% and 2.3% and 2.2% and 1.3%
genetic toxicity, human chromosomal aberration test [5]: not toxic
concentration at 0.083 h ([6]; Wistar, rat, eye ball, other: intravitreous injection, 0.083 h (5 min), read-out: Mean Eye Ball Concentration): 7.25 nM
concentration at 0.083 h ([6]; Wistar, rat, eye ball, other: intravitreous injection, 0.083 h, single eye, read-out: Eye Ball Concentration): 9.23 nM
concentration at 2 h ([6]; Wistar, rat, eye ball, other: intravitreous injection, 2 h, single eye, read-out: Eye Ball Concentration): 1.19 nM
concentration at 2 h ([6]; Wistar, rat, eye ball, other: intravitreous injection, 2 h, read-out: Mean Eye Ball Concentration): 1.49 nM
concentration at 2 h ([6]; 0.083 h, single eye, read-out: Eye Ball Concentration): 5.27 nM
concentration at 2 h ([6]; 2 h, single eye, read-out: Eye Ball Concentration): 1.78 nM

From publication PMC8235661, “Photoelectric Dye, NK-5962, as a Potential Drug for Preventing Retinal Neurons from Apoptosis: Pharmacokinetic Studies Based on Review of the Evidence” (Life, 2021)
